From the NIST ThermoML archive (doi:10.1016/j.jct.2017.08.004)
± gives the expanded uncertainty stated by the source.

Assay: molar heat capacity at constant pressure
Settings: 101.33 kPa, Crystal

O[C@H]1[C@H](O)[C@@H](O)[C@H](O)[C@@H](O)[C@H]1O [cis-1,2,3,5-trans-4,6-cyclohexanehexol]
molar heat capacity at constant pressure [J/K/mol]
Settings | Small sample (50 mg) DSC | relaxation calorimetry
1 K | – | 0.00189 ± 0.00021
1.926 K | – | 0.009609 ± 0.0008
2 K | – | 0.0108 ± 0.00074
2.127 K | – | 0.01292 ± 0.0011
2.354 K | – | 0.01758 ± 0.0013
2.61 K | – | 0.02281 ± 0.0017
2.904 K | – | 0.03148 ± 0.0023
3 K | – | 0.03479 ± 0.0023
3.219 K | – | 0.04281 ± 0.0031
3.569 K | – | 0.0586 ± 0.0042
3.959 K | – | 0.08072 ± 0.0058
4 K | – | 0.08367 ± 0.0053
4.391 K | – | 0.1121 ± 0.008
4.872 K | – | 0.1562 ± 0.011
5 K | – | 0.1693 ± 0.011
5.405 K | – | 0.2182 ± 0.015
5.998 K | – | 0.3056 ± 0.021
6 K | – | 0.3048 ± 0.019
6.654 K | – | 0.4273 ± 0.03
7 K | – | 0.5031 ± 0.031
7.388 K | – | 0.5992 ± 0.042
8 K | – | 0.7731 ± 0.048
8.198 K | – | 0.8347 ± 0.058
9 K | – | 1.113 ± 0.069
9.101 K | – | 1.15 ± 0.08
10 K | – | 1.523 ± 0.094
10.15 K | – | 1.591 ± 0.11
11.25 K | – | 2.131 ± 0.15
12.48 K | – | 2.827 ± 0.2
13.85 K | – | 3.674 ± 0.26
15 K | – | 4.447 ± 0.27
15.39 K | – | 4.714 ± 0.33
17.07 K | – | 5.945 ± 0.41
18.96 K | – | 7.393 ± 0.52
20 K | – | 8.193 ± 0.5
21.04 K | – | 8.992 ± 0.37
23.37 K | – | 10.83 ± 0.44
25 K | – | 12.09 ± 0.74
25.95 K | – | 12.77 ± 0.52
28.81 K | – | 14.98 ± 0.61
30 K | – | 15.9 ± 0.97
32 K | – | 17.42 ± 0.71
35 K | – | 19.73 ± 1.2
35.5 K | – | 20.13 ± 0.82
39.37 K | – | 23.3 ± 0.95
40 K | – | 23.68 ± 1.4
43.71 K | – | 26.66 ± 1.1
45 K | – | 27.69 ± 1.7
48.5 K | – | 30.26 ± 1.2
50 K | – | 31.58 ± 1.9
53.84 K | – | 34.36 ± 1.4
55 K | – | 35.27 ± 2.2
59.75 K | – | 39.03 ± 1.6
60 K | – | 39.12 ± 2.4
65 K | – | 43.04 ± 2.6
66.32 K | – | 44.21 ± 1.8
70 K | – | 47.02 ± 2.9
73.64 K | – | 49.9 ± 2
75 K | – | 51.04 ± 3.1
80 K | – | 55.09 ± 3.4
81.73 K | – | 56.7 ± 2.3
85 K | – | 59.15 ± 3.6
90 K | – | 63.21 ± 3.9
90.71 K | – | 63.72 ± 2.6
95 K | – | 67.25 ± 4.1
100 K | – | 71.28 ± 4.4
100.66 K | – | 71.12 ± 2.9
110 K | – | 79.22 ± 4.9
110.79 K | – | 79.63 ± 3.2
120 K | – | 87.03 ± 5.3
120.83 K | – | 87.98 ± 3.6
130 K | – | 94.69 ± 5.8
130.89 K | – | 95.77 ± 3.9
140 K | – | 102.22 ± 6.3
141.02 K | – | 103.28 ± 4.2
150 K | – | 109.64 ± 6.7
151.12 K | – | 110.61 ± 4.5
160 K | – | 116.97 ± 7.2
161.24 K | – | 117.92 ± 4.8
170 K | – | 124.22 ± 7.6
171.29 K | – | 125.13 ± 5.1
180 K | – | 131.43 ± 8.1
181.39 K | – | 132.46 ± 5.4
188.15 K | 132.1 ± 19 | –
189.15 K | 133.01 ± 19 | –
190 K | – | 138.61 ± 8.5
190.15 K | 134.04 ± 19 | –
191.15 K | 134.87 ± 19 | –
191.48 K | – | 139.61 ± 5.7
192.15 K | 135.65 ± 19 | –
193.15 K | 136.44 ± 19 | –
194.15 K | 137.52 ± 19 | –
195.15 K | 138.44 ± 19 | –
196.15 K | 139.45 ± 20 | –
197.15 K | 140.42 ± 20 | –
198.15 K | 141.25 ± 20 | –
199.15 K | 142.04 ± 20 | –
200 K | – | 145.78 ± 8.9
200.15 K | 142.99 ± 20 | –
201.15 K | 143.81 ± 20 | –
201.58 K | – | 146.36 ± 6
202.15 K | 144.76 ± 20 | –
203.15 K | 145.49 ± 20 | –
204.15 K | 146.25 ± 21 | –
205.15 K | 147.12 ± 21 | –
206.15 K | 147.9 ± 21 | –
207.15 K | 148.76 ± 21 | –
208.15 K | 149.37 ± 21 | –
209.15 K | 150.17 ± 21 | –
210 K | – | 152.96 ± 9.4
210.15 K | 150.93 ± 21 | –
211.15 K | 151.82 ± 21 | –
211.7 K | – | 153.74 ± 6.2
212.15 K | 152.59 ± 21 | –
213.15 K | 153.21 ± 22 | –
214.15 K | 154.05 ± 22 | –
215.15 K | 154.79 ± 22 | –
216.15 K | 155.5 ± 22 | –
217.15 K | 156.37 ± 22 | –
218.15 K | 157.24 ± 22 | –
219.15 K | 158 ± 22 | –
220 K | – | 160.15 ± 9.8
220.15 K | 158.66 ± 22 | –
221.15 K | 159.51 ± 22 | –
221.79 K | – | 161.31 ± 6.5
222.15 K | 160.36 ± 23 | –
223.15 K | 161.11 ± 23 | –
224.15 K | 161.84 ± 23 | –
225.15 K | 162.58 ± 23 | –
226.15 K | 163.3 ± 23 | –
227.15 K | 164.03 ± 23 | –
228.15 K | 164.76 ± 23 | –
229.15 K | 165.48 ± 23 | –
230 K | – | 167.37 ± 10
230.15 K | 166.09 ± 23 | –
231.15 K | 166.87 ± 23 | –
231.88 K | – | 168.69 ± 6.8
232.15 K | 167.66 ± 24 | –
233.15 K | 168.47 ± 24 | –
234.15 K | 169.23 ± 24 | –
235.15 K | 169.98 ± 24 | –
236.15 K | 170.76 ± 24 | –
237.15 K | 171.54 ± 24 | –
238.15 K | 172.36 ± 24 | –
239.15 K | 173.06 ± 24 | –
240 K | – | 174.63 ± 11
240.15 K | 173.81 ± 24 | –
241.15 K | 174.61 ± 25 | –
241.96 K | – | 176.25 ± 7.2
242.15 K | 175.4 ± 25 | –
243.15 K | 176.08 ± 25 | –
244.15 K | 176.84 ± 25 | –
245.15 K | 177.49 ± 25 | –
246.15 K | 178.19 ± 25 | –
247.15 K | 178.89 ± 25 | –
248.15 K | 179.65 ± 25 | –
249.15 K | 180.32 ± 25 | –
250 K | – | 181.94 ± 11
250.15 K | 181.03 ± 25 | –
251.15 K | 181.9 ± 26 | –
251.99 K | – | 183.44 ± 7.5
252.15 K | 182.55 ± 26 | –
253.15 K | 183.36 ± 26 | –
254.15 K | 184.08 ± 26 | –
255.15 K | 184.96 ± 26 | –
256.15 K | 185.78 ± 26 | –
257.15 K | 186.45 ± 26 | –
258.15 K | 187.25 ± 26 | –
259.15 K | 188.05 ± 26 | –
260 K | – | 189.3 ± 12
260.15 K | 188.81 ± 27 | –
261.15 K | 189.58 ± 27 | –
262.11 K | – | 191.23 ± 7.8
262.15 K | 190.24 ± 27 | –
263.15 K | 191.02 ± 27 | –
264.15 K | 191.84 ± 27 | –
265.15 K | 192.51 ± 27 | –
266.15 K | 193.18 ± 27 | –
267.15 K | 194.11 ± 27 | –
268.15 K | 194.88 ± 27 | –
269.15 K | 195.58 ± 28 | –
270 K | – | 196.73 ± 12
270.15 K | 196.44 ± 28 | –
271.15 K | 197.16 ± 28 | –
272.15 K | 197.91 ± 28 | –
272.17 K | – | 198.87 ± 8.1
273.15 K | 198.7 ± 28 | 199.08 ± 12
274.15 K | 199.42 ± 28 | –
275.15 K | 200.19 ± 28 | –
276.15 K | 201.09 ± 28 | –
277.15 K | 201.63 ± 28 | –
278.15 K | 202.4 ± 28 | –
279.15 K | 203.19 ± 29 | –
280 K | – | 204.22 ± 13
280.15 K | 203.91 ± 29 | –
281.15 K | 204.75 ± 29 | –
282.15 K | 205.45 ± 29 | –
282.18 K | – | 206.06 ± 8.4
283.15 K | 206.13 ± 29 | –
284.15 K | 206.78 ± 29 | –
285.15 K | 207.67 ± 29 | –
286.15 K | 208.29 ± 29 | –
287.15 K | 208.96 ± 29 | –
288.15 K | 209.73 ± 30 | –
289.15 K | 210.44 ± 30 | –
290 K | – | 211.78 ± 13
290.15 K | 211.29 ± 30 | –
291.15 K | 212.09 ± 30 | –
292.15 K | 212.8 ± 30 | –
292.29 K | – | 213.34 ± 8.7
293.15 K | 213.54 ± 30 | –
294.15 K | 214.44 ± 30 | –
295.15 K | 215.31 ± 30 | –
296.15 K | 216.01 ± 30 | –
297.15 K | 216.77 ± 30 | –
298.15 K | 217.6 ± 31 | 218 ± 13
299.15 K | 218.39 ± 31 | –
300 K | – | 219.42 ± 13
300.15 K | 219.12 ± 31 | –
301.15 K | 219.99 ± 31 | –
302.15 K | 220.81 ± 31 | –
302.4 K | – | 220.86 ± 9
303.15 K | 221.72 ± 31 | –
304.15 K | 222.56 ± 31 | –
305 K | 223.54 ± 31 | –
305.15 K | 223.48 ± 31 | –
306.15 K | 224.53 ± 32 | –
307.15 K | 225.41 ± 32 | –
308.15 K | 226.47 ± 32 | –
309.15 K | 227.45 ± 32 | –
310 K | 228.25 ± 32 | –
310.15 K | 228.42 ± 32 | –
311.15 K | 229.32 ± 32 | –
312.15 K | 230.3 ± 32 | –
313.15 K | 231.18 ± 33 | –
314.15 K | 232.03 ± 33 | –
315 K | 232.85 ± 33 | –
